Results reported in ChEMBL document CHEMBL4229379, “Synthesis and structure-activity relationship of novel bisindole amidines active against MDR Gram-positive and Gram-negative bacteria” (Eur J Med Chem, 2018).

Experiments:
Klebsiella aerogenes [1] = test: Antibacterial activity against carbapenem-resistant Enterobacter aerogenes 11-4 after 18 hrs by CLSI broth microdilution method; assay type: functional
[2] = tested on: Acinetobacter calcoaceticus; test: Antibacterial activity against new delhi metallo-beta-lactamase-1 harboring Acinetobacter calcoaceticus 13-1 after 18 hrs by CLSI broth microdilution method; assay type: functional
Klebsiella pneumoniae [3] = test: Antibacterial activity against carbapenem-resistant Klebsiella pneumoniae 12-12 after 18 hrs by CLSI broth microdilution method; assay type: functional
Escherichia coli [4] = test: Antibacterial activity against extended-spectrum beta-lactamase harboring Escherichia coli 13-1 after 18 hrs by CLSI broth microdilution method; assay type: functional
Enterobacter cloacae [5] = test: Antibacterial activity against new delhi metallo-beta-lactamase-1 harboring Enterobacter cloacae CDC1000654 after 18 hrs by CLSI broth microdilution method; assay type: functional
Enterobacter cloacae [6] = test: Antibacterial activity against new delhi metallo-beta-lactamase-1 harboring Enterobacter cloacae 13-1 after 18 hrs by CLSI broth microdilution method; assay type: functional
Klebsiella pneumoniae [7] = test: Antibacterial activity against carbapenem-resistant Klebsiella pneumoniae 12-11 after 18 hrs by CLSI broth microdilution method; assay type: functional
[8] = tested on: Acinetobacter calcoaceticus; test: Antibacterial activity against carbapenem-resistant Acinetobacter calcoaceticus 12-6 after 18 hrs by CLSI broth microdilution method; assay type: functional
Escherichia coli [9] = test: Antibacterial activity against extended-spectrum beta-lactamase harboring Escherichia coli CDC1001728 after 18 hrs by CLSI broth microdilution method; assay type: functional
Klebsiella pneumoniae [10] = test: Antibacterial activity against new delhi metallo-beta-lactamase-1 harboring Klebsiella pneumoniae ATCC BAA-2146 after 18 hrs by CLSI broth microdilution method; assay type: functional
Klebsiella pneumoniae [11] = test: Antibacterial activity against new delhi metallo-beta-lactamase-1 harboring Klebsiella pneumoniae 13-1 after 18 hrs by CLSI broth microdilution method; assay type: functional
Klebsiella pneumoniae [12] = test: Antibacterial activity against extended-spectrum beta-lactamase harboring Klebsiella pneumoniae 12-8 after 18 hrs by CLSI broth microdilution method; assay type: functional; conditions: 12-8, 18 h
Escherichia coli [13] = test: Antibacterial activity against extended-spectrum beta-lactamase deficient Escherichia coli ATCC 25922 after 18 hrs by CLSI broth microdilution method; assay type: functional; conditions: ATCC 25922, 18 h
Enterococcus faecium [14] = test: Antibacterial activity against vancomycin-resistant Enterococcus faecium 12-1 after 18 hrs by CLSI broth microdilution method; assay type: functional; conditions: 12-1, 18 h
Pseudomonas aeruginosa [15] = test: Antibacterial activity against Pseudomonas aeruginosa PAO1 after 18 hrs by CLSI broth microdilution method; assay type: functional; conditions: PAO1, 18 h
Staphylococcus aureus [16] = test: Antibacterial activity against methicillin-sensitive Staphylococcus aureus ATCC 29213 after 18 hrs by CLSI broth microdilution method; assay type: functional; conditions: ATCC 29213, 18 h
Klebsiella pneumoniae [17] = test: Antibacterial activity against extended-spectrum beta-lactamase deficient Klebsiella pneumoniae 7 after 18 hrs by CLSI broth microdilution method; assay type: functional; conditions: Klebsiella pneumoniae, 7, 18 h
Enterococcus faecium [18] = test: Potency index, ratio of levofloxacin MIC to compound MIC for vancomycin-resistant Enterococcus faecium ATCC 700221; assay type: functional
Staphylococcus aureus [19] = test: Antibacterial activity against methicillin-resistant Staphylococcus aureus 12-33 after 18 hrs by CLSI broth microdilution method; assay type: functional; conditions: 12-33, 18 h
Providencia rettgeri = test: Antibacterial activity against Providencia rettgeri ATCC 31052 after 18 hrs by CLSI broth microdilution method; assay type: functional; conditions: ATCC 31052, 18 h
Klebsiella aerogenes [20] = test: Antibacterial activity against Enterobacter aerogenes ATCC 13048 after 18 hrs by CLSI broth microdilution method; assay type: functional; conditions: ATCC 13048, 18 h
Klebsiella pneumoniae [21] = test: Antibacterial activity against extended-spectrum beta-lactamase harboring Klebsiella pneumoniae ATCC 700603 after 18 hrs by CLSI broth microdilution method; assay type: functional; conditions: Klebsiella pneumoniae, 700603, 18 h
Proteus mirabilis = test: Antibacterial activity against Proteus mirabilis 12-6 after 18 hrs by CLSI broth microdilution method; assay type: functional; conditions: 12-6, 18 h
Escherichia coli [22] = test: Antibacterial activity against extended-spectrum beta-lactamase harboring Escherichia coli 12-15 after 18 hrs by CLSI broth microdilution method; assay type: functional; conditions: 12-15, 18 h
[23] = tested on: Staphylococcus epidermidis; test: Antibacterial activity against methicillin-resistant Staphylococcus epidermidis 12-8 after 18 hrs by CLSI broth microdilution method; assay type: functional; conditions: 12-8, 18 h
[24] = tested on: Staphylococcus epidermidis; test: Antibacterial activity against methicillin-sensitive Staphylococcus epidermidis ATCC 12228 after 18 hrs by CLSI broth microdilution method; assay type: functional; conditions: ATCC 12228, 18 h
Enterococcus faecalis [25] = test: Antibacterial activity against vancomycin-sensitive Enterococcus faecalis 12-5 after 18 hrs by CLSI broth microdilution method; assay type: functional; conditions: 12-5, 18 h
[26] = tested on: Acinetobacter calcoaceticus; test: Antibacterial activity against Acinetobacter calcoaceticus ATCC 19606 after 18 hrs by CLSI broth microdilution method; assay type: functional; conditions: ATCC 19606, 18 h
Staphylococcus aureus [27] = test: Antibacterial activity against methicillin-sensitive Staphylococcus aureus 12-28 after 18 hrs by CLSI broth microdilution method; assay type: functional; conditions: 12-28, 18 h
Citrobacter freundii = test: Antibacterial activity against Citrobacter freundii ATCC 43864 after 18 hrs by CLSI broth microdilution method; assay type: functional; conditions: ATCC 43864, 18 h
[28] = tested on: Stenotrophomonas maltophilia; test: Antibacterial activity against Stenotrophomonas maltophilia ATCC 13636 after 18 hrs by CLSI broth microdilution method; assay type: functional; conditions: ATCC 13636, 18 h
Klebsiella pneumoniae [29] = test: Antibacterial activity against extended-spectrum beta-lactamase deficient Klebsiella pneumoniae 12-4 after 18 hrs by CLSI broth microdilution method; assay type: functional; conditions: 12-4, 18 h
Pseudomonas aeruginosa [30] = test: Antibacterial activity against Pseudomonas aeruginosa ATCC 27853 after 18 hrs by CLSI broth microdilution method; assay type: functional; conditions: ATCC 27853, 18 h
[31] = Cytotoxicity against HEK293T cells assessed as reduction in cell viability after 48 hrs by MTS assay; assay type: cell-based, HEK-293T; conditions: human
Enterococcus faecalis [32] = test: Potency index, ratio of levofloxacin MIC to compound MIC for vancomycin-resistant Enterococcus faecalis 09-9; assay type: functional
Staphylococcus aureus [33] = test: Potency index, ratio of levofloxacin MIC to compound MIC for methicillin-resistant Staphylococcus aureus 12-33; assay type: functional
Enterococcus faecalis [34] = test: Antibacterial activity against vancomycin-resistant Enterococcus faecalis 09-9 after 18 hrs by CLSI broth microdilution method; assay type: functional; conditions: 09-9, 18 h
Serratia marcescens = test: Antibacterial activity against Serratia marcescens ATCC 21074 after 18 hrs by CLSI broth microdilution method; assay type: functional; conditions: ATCC 21074, 18 h
Staphylococcus aureus [35] = test: Antibacterial activity against methicillin-sensitive Staphylococcus aureus 15 after 18 hrs by CLSI broth microdilution method; assay type: functional; conditions: Staphylococcus aureus, 15, 18 h
Enterococcus faecalis [36] = test: Potency index, ratio of levofloxacin MIC to compound MIC for vancomycin-resistant Enterococcus faecalis ATCC 51299; assay type: functional
Enterococcus faecalis [37] = test: Antibacterial activity against vancomycin-sensitive Enterococcus faecalis ATCC 29212 after 18 hrs by CLSI broth microdilution method; assay type: functional; conditions: ATCC 29212, 18 h
Enterococcus faecium [38] = test: Antibacterial activity against vancomycin-sensitive Enterococcus faecium 12-3 after 18 hrs by CLSI broth microdilution method; assay type: functional; conditions: 12-3, 18 h
Escherichia coli [39] = test: Antibacterial activity against extended-spectrum beta-lactamase deficient Escherichia coli 12-14 after 18 hrs by CLSI broth microdilution method; assay type: functional; conditions: 12-14, 18 h
Enterococcus faecalis [40] = test: Antibacterial activity against vancomycin-resistant Enterococcus faecalis ATCC 51299 after 18 hrs by CLSI broth microdilution method; assay type: functional; conditions: ATCC 51299, 18 h
Enterococcus faecium [41] = test: Potency index, ratio of levofloxacin MIC to compound MIC for vancomycin-resistant Enterococcus faecium 12-1; assay type: functional
[42] = tested on: Staphylococcus epidermidis; test: Antibacterial activity against methicillin-sensitive Staphylococcus epidermidis 12-6 after 18 hrs by CLSI broth microdilution method; assay type: functional; conditions: 12-6, 18 h
Enterobacter cloacae [43] = test: Antibacterial activity against Enterobacter cloacae ATCC 43560 after 18 hrs by CLSI broth microdilution method; assay type: functional; conditions: ATCC 43560, 18 h
Escherichia coli [44] = test: Antibacterial activity against extended-spectrum beta-lactamase deficient Escherichia coli 1515 after 18 hrs by CLSI broth microdilution method; assay type: functional; conditions: Escherichia coli, 1515, 18 h
Pseudomonas aeruginosa [45] = test: Antibacterial activity against Pseudomonas aeruginosa 12-16 after 18 hrs by CLSI broth microdilution method; assay type: functional; conditions: 12-16, 18 h
Proteus vulgaris = test: Antibacterial activity against Proteus vulgaris ATCC 29905 after 18 hrs by CLSI broth microdilution method; assay type: functional; conditions: ATCC 29905, 18 h
Staphylococcus aureus [46] = test: Potency index, ratio of levofloxacin MIC to compound MIC for methicillin-resistant Staphylococcus aureus ATCC 33591; assay type: functional
Enterococcus faecium [47] = test: Antibacterial activity against vancomycin-resistant Enterococcus faecium ATCC 700221 after 18 hrs by CLSI broth microdilution method; assay type: functional; conditions: ATCC 700221, 18 h
Staphylococcus aureus [48] = test: Antibacterial activity against methicillin-resistant Staphylococcus aureus ATCC 33591 after 18 hrs by CLSI broth microdilution method; assay type: functional; conditions: ATCC 33591, 18 h

COLISTIN
0.5 µg/mL: MIC (Klebsiella aerogenes [1]) | MIC [2] | MIC (Escherichia coli [4]) | MIC (Enterobacter cloacae [5]) | MIC (Enterobacter cloacae [6]) | MIC (Klebsiella pneumoniae [7]) | MIC [8] | MIC (Escherichia coli [9]) | MIC (Klebsiella pneumoniae [10]) | MIC (Klebsiella pneumoniae [11])
1 µg/mL: MIC (Klebsiella pneumoniae [3])

N=C(c1ccc2cc(-c3ccc(-c4cc5ccc(C(=N)N6CCC(N7CCCC7)CC6)cc5[nH]4)cc3)[nH]c2c1)N1CCC(N2CCCC2)CC1
> 128 µg/mL: MIC (Proteus mirabilis) | MIC [26] | MIC (Serratia marcescens)
64 µg/mL: MIC (Klebsiella pneumoniae [21]) | MIC (Enterococcus faecalis [25])
128 µg/mL: MIC (Pseudomonas aeruginosa [15]) | MIC (Providencia rettgeri) | MIC [28] | MIC (Pseudomonas aeruginosa [45]) | MIC (Proteus vulgaris)
50 µg/mL: CC50 at 48 h [31]
8 µg/mL: MIC (Escherichia coli [13]) | MIC (Staphylococcus aureus [16]) | MIC (Staphylococcus aureus [19]) | MIC [23] | MIC (Staphylococcus aureus [27]) | MIC (Staphylococcus aureus [35]) | MIC [42] | MIC (Staphylococcus aureus [48])
4 µg/mL: MIC [24]
4 - 128: Ratio (Staphylococcus aureus [33]) | Ratio (Staphylococcus aureus [46])
4 - 512: Ratio (Enterococcus faecium [18]) | Ratio (Enterococcus faecalis [32]) | Ratio (Enterococcus faecalis [36]) | Ratio (Enterococcus faecium [41])
16 µg/mL: MIC (Klebsiella pneumoniae [12]) | MIC (Enterococcus faecium [14]) | MIC (Klebsiella pneumoniae [17]) | MIC (Klebsiella aerogenes [20]) | MIC (Escherichia coli [22]) | MIC (Citrobacter freundii) | MIC (Klebsiella pneumoniae [29]) | MIC (Pseudomonas aeruginosa [30]) | MIC (Enterococcus faecalis [34]) | MIC (Enterococcus faecalis [37]) | MIC (Enterococcus faecium [38]) | MIC (Escherichia coli [39]) | MIC (Enterobacter cloacae [43]) | MIC (Escherichia coli [44]) | MIC (Enterococcus faecium [47])
32 µg/mL: MIC (Enterococcus faecalis [40]) | MIC (Klebsiella pneumoniae [10]; ATCC BAA-2146, 18 h)

C[C@H]1COc2c(N3CCN(C)CC3)c(F)cc3c(=O)c(C(=O)O)cn1c23.C[C@H]1COc2c(N3CCN(C)CC3)c(F)cc3c(=O)c(C(=O)O)cn1c23.O [LEVOFLOXACIN]
8 µg/mL: MIC (Klebsiella pneumoniae [12]) | MIC (Klebsiella pneumoniae [3]; 12-12, 18 h) | MIC ([8]; 12-6, 18 h) | MIC (Pseudomonas aeruginosa [45])
1 µg/mL: MIC (Enterococcus faecalis [25])
64 µg/mL: MIC (Escherichia coli [4]; 13-1, 18 h) | MIC (Enterococcus faecium [47])
≤ 0.03 µg/mL: MIC (Escherichia coli [13]) | MIC (Klebsiella pneumoniae [17]) | MIC (Providencia rettgeri) | MIC (Klebsiella aerogenes [20]) | MIC (Citrobacter freundii) | MIC (Klebsiella pneumoniae [29]) | MIC (Enterobacter cloacae [43]) | MIC (Escherichia coli [44])
> 128 µg/mL: MIC (Enterococcus faecalis [34]) | MIC (Klebsiella pneumoniae [10]; ATCC BAA-2146, 18 h)
0.125 µg/mL: MIC (Staphylococcus aureus [16]) | MIC [24] | MIC (Staphylococcus aureus [27]) | MIC (Staphylococcus aureus [35]) | MIC (Proteus vulgaris) | MIC (Staphylococcus aureus [48])
0.5 µg/mL: MIC [26] | MIC (Pseudomonas aeruginosa [30]) | MIC (Enterococcus faecalis [37]) | MIC (Enterococcus faecalis [40]) | MIC [42]
0.06 µg/mL: MIC (Serratia marcescens)
16 µg/mL: MIC (Klebsiella aerogenes [1]; 11-4, 18 h) | MIC (Escherichia coli [22]) | MIC (Klebsiella pneumoniae [7]; 12-11, 18 h) | MIC (Escherichia coli [9]; CDC1001728, 18 h)
0.25 µg/mL: MIC [28]
128 µg/mL: MIC (Enterobacter cloacae [6]; 13-1, 18 h)
2 µg/mL: MIC ([2]; 13-1, 18 h)
4 µg/mL: MIC (Proteus mirabilis) | MIC [23]
32 µg/mL: MIC (Enterococcus faecium [14]) | MIC (Staphylococcus aureus [19]) | MIC (Enterobacter cloacae [5]; CDC1000654, 18 h) | MIC (Enterococcus faecium [38])
